Assay results from patent US11318134B2, “Benzamide compounds” (priority 2018, dated 2022).

Assays:
RS4;11 cells = experiment: RS4;11 cell proliferation assay (CellTiter-Glo); assay type: cell-based; conditions: Homo sapiens, RS4-11, 48 h, read-out: RS4;11 (nM), CTG IC50
Method: Cell proliferation was measured using the CellTiter-Glo® Luminescent Cell Viability Assay. The assay involved the addition of a single reagent (CellTiter-Glo® Reagent) directly to cells cultured in serum-supplemented medium.
Each compound evaluated was prepared as a DMSO stock solution (10 mM). Compounds were tested in duplicate on each plate, with a 10-point serial dilution curve (1:3 dilution). Compound treatment (1.0 μL) was added from the compound dilution plate to the cell plate. The highest compound concentration was 10 μM (final), with a 0.1% final DMSO concentration. Plates were then incubated at 37° C., 5% CO2. After 48 h of compound treatment for RS4;11 or 72 h for NCI-H1963, cell plates were equilibrated at rt for approximately 30 mins. An equi-volume amount of CellTiter-Glo® Reagent (40 μL) was added to each well. […] Luminescence was recorded using a Envision plate reader according to CellTiter-Glo protocol. IC50 of each compound was calculated using GraphPad Prism by nonlinear regression analysis.

Bcl-2 [1] = target: T1, Bcl-2 (Homo sapiens (Human), UniProt P10415); experiment: Bcl-2 protein family binding assay (Bcl2scan platform), Bcl-2; conditions: BIM peptide ligand, 11-point dilution, read-out: Bc1-2 Kd (nm)
T1 sequence (P10415 whole entry): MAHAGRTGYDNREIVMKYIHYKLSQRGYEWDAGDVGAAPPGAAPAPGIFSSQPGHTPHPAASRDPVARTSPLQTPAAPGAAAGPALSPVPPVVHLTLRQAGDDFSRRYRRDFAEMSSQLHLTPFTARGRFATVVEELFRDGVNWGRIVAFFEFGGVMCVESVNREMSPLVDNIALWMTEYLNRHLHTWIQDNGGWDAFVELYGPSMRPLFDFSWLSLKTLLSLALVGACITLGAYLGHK
Method: (§1) E. coli were grown to log-phase and infected with T7 phage from a frozen stock (multiplicity of infection=0.4) and incubated with shaking at 32° C. until lysis (90-150 minutes). The lysates were centrifuged (5,000×g) and filtered (0.2 μm) to remove cell debris. […] The liganded beads were blocked with excess biotin and washed with blocking buffer (SeaBlock (Pierce), 1% BSA, 0.05% Tween 20, 1 mM DTT) to remove unbound ligand and to reduce non-specific phage binding. […] Test compounds were prepared as 100× stocks in 100% DMSO. Kds were determined using an 11-point 3-fold compound dilution series with one DMSO control point. […] The compounds were then diluted directly into the assays such that the final concentration of DMSO was 0.9%. All reactions performed in polypropylene 384-well plates. Each was a final volume of 0.02 ml. […] The BCL2 concentration in the eluates was measured by qPCR. Binding constants (Kds) were calculated with a standard dose-response curve using the Hill equation:
(§2) [formula] The Hill Slope was set to −1. Curves were fitted using a non-linear least square fit with the Levenberg-Marquardt algorithm.

Bcl-XL [2] = target: T2, Bcl-XL (Homo sapiens (Human), UniProt Q07817); experiment: Bcl-2 protein family binding assay (Bcl2scan platform), Bcl-XL; conditions: BIM peptide ligand, 11-point dilution, read-out: Bc1-XL Kd (nm)
T2 sequence (Q07817 whole entry): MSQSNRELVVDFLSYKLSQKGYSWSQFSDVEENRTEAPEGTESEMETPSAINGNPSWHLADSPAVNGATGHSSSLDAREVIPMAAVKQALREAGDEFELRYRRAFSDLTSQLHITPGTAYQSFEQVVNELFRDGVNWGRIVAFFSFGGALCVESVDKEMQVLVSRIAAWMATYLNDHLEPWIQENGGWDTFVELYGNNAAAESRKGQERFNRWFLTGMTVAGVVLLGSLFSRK
Method: as §1, §2

Bcl-2 [3] = target: T1, Bcl-2; experiment: Bcl-2 HTRF assay (FAM-Bak peptide); assay type: binding; conditions: HTRF, 4 nM Bcl-2, 100 nM FAM-Bak peptide; read-out: Bc1-2 IC50
Bcl-XL [4] = target: T2, Bcl-XL; experiment: Bcl-XL HTRF assay (FAM-Bad peptide); assay type: binding; conditions: HTRF, 3 nM Bcl-XL, 40 nM FAM-Bad peptide; read-out: Bc1-XL IC50

Question: For `CC1(C)CCC(CN2CCN(c3ccc(C(=O)NS(=O)(=O)c4ccc(NCC5(F)CCOCC5)c([N+](=O)[O-])c4)c(Oc4cnc5[nH]ccc5c4)c3)CC2)=C(C23CC(C(F)(F)F)(C2)C3)C1` [Example 30, 2-((1H-pyrrolo[2,3-b]pyridin-5-yl)oxy)-4-(4-((4,4-dimethyl-2-(3-(trifluoromethyl)bicyclo[1.1.1]pentan-1-yl)cyclohex-1l-en-1-yl)methyl)piperazin-1-yl)-N-((4-(((4-fluorotetrahydro-2H-pyran-4-yl)methyl)amino)-3-nitrophenyl)sulfonyl)benzamide], which IC50 (RS4;11 cells) is on record?
Answer: < 100 nM

Question: And the Kd (Bcl-2 [1])?
Answer: < 10 nM

Question: And the Kd (Bcl-XL [2])?
Answer: > 100 nM

Question: For `CC1(C)CCC(CN2CCN(c3ccc(C(=O)NS(=O)(=O)c4ccc(OCC5(F)CCOCC5)c([N+](=O)[O-])c4)c(Oc4cnc5[nH]ccc5c4)c3)CC2)=C(C23CC(C(F)(F)F)(C2)C3)C1` [Example 31, 2-((1H-pyrrolo[2,3-b]pyridin-5-yl)oxy)-4-(4-((4,4-dimethyl-2-(3-(trifluoromethyl)bicyclo[1.1.1]pentan-1-yl)cyclohex-1-en-1-yl)methyl)piperazin-1-yl)-N-((4-((4-fluorotetrahydro-2H-pyran-4-yl)methoxy)-3-nitrophenyl)sulfonyl)benzamide], which IC50 (RS4;11 cells) is on record?
Answer: < 100 nM

Question: What about the Kd (Bcl-2 [1]) of the same compound?
Answer: < 10 nM

Question: What about the Kd (Bcl-XL [2]) of the same compound?
Answer: > 100 nM

Question: With `CC1(C)CCC(CN2CCN(c3ccc(C(=O)NS(=O)(=O)c4ccc(NC[C@H]5CC[C@](C)(O)CC5)c([N+](=O)[O-])c4)c(Oc4cnc5[nH]ccc5c4)c3)CC2)=C(C23CC(C(F)(F)F)(C2)C3)C1` [Example 32, 2-((1H-pyrrolo[2,3-b]pyridin-5-yl)oxy)-4-(4-((4,4-dimethyl-2-(3-(trifluoromethyl)bicyclo[1.1.1]pentan-1-yl)cyclohex-1-en-1-yl)methyl)piperazin-1-yl)-N-((4-((((1r,4r)-4-hydroxy-4-methylcyclohexyl)methyl)amino)-3-nitrophenyl)sulfonyl)benzamide] as the compound, how does the IC50 (RS4;11 cells) read?
Answer: < 100 nM

Question: And the Kd (Bcl-2 [1])?
Answer: < 10 nM

Question: What about the Kd (Bcl-XL [2]) of the same compound?
Answer: > 100 nM

Question: `CC1(C)CCC(CN2CCN(c3ccc(C(=O)NS(=O)(=O)c4ccc(NCC5CCOCC5)c([N+](=O)[O-])c4)c(Oc4cnc5[nH]ccc5c4)c3)CC2)=C(C23CC(C(F)F)(C2)C3)C1` [Example 33, 2-((1H-pyrrolo[2,3-b]pyridin-5-yl)oxy)-4-(4-((2-(3-(difluoromethyl)bicyclo[1.1.1]pentan-1-yl)-4,4-dimethylcyclohex-1-en-1-yl)methyl)piperazin-1-yl)-N-((3-nitro-4-(((tetrahydro-2H-pyran-4-yl)methyl)amino)phenyl)sulfonyl)benzamide] was tested. Which IC50 (RS4;11 cells) did it give?
Answer: < 100 nM

Question: What about the Kd (Bcl-2 [1]) of the same compound?
Answer: < 10 nM

Question: And the Kd (Bcl-XL [2])?
Answer: > 100 nM

Question: Which results are given for `CC1(C)CCC(CN2CCN(c3ccc(C(=O)NS(=O)(=O)c4ccc(NCC5(F)CCOCC5)c([N+](=O)[O-])c4)c(Oc4cnc5[nH]ccc5c4)c3)CC2)=C(C23CC(C(F)F)(C2)C3)C1` [Example 35, 2-((1H-pyrrolo[2,3-b]pyridin-5-yl)oxy)-4-(4-((2-(3-(difluoromethyl)bicyclo[1.1.1]pentan-1-yl)-4,4-dimethylcyclohex-1-en-1-yl)methyl)piperazin-1-yl)-N-((4-(((4-fluorotetrahydro-2H-pyran-4-yl)methyl)amino)-3-nitrophenyl)sulfonyl)benzamide]?
Answer: IC50 (RS4;11 cells): < 100 nM; Kd (Bcl-2 [1]): < 10 nM; Kd (Bcl-XL [2]): > 100 nM

Question: What does the source list for `CC1(C)CCC(CN2CCN(c3ccc(C(=O)NS(=O)(=O)c4ccc(OCC5(F)CCOCC5)c([N+](=O)[O-])c4)c(Oc4cnc5[nH]ccc5c4)c3)CC2)=C(C23CC(C(F)F)(C2)C3)C1` [Example 36, 2-((1H-pyrrolo[2,3-b]pyridin-5-yl)oxy)-4-(4-((2-(3-(difluoromethyl)bicyclo[1.1.1]pentan-1-yl)-4,4-dimethylcyclohex-1-en-1-yl)methyl)piperazin-1-yl)-N-((4-((4-fluorotetrahydro-2H-pyran-4-yl)methoxy)-3-nitrophenyl)sulfonyl)benzamide]?
Answer: IC50 (RS4;11 cells): < 100 nM; Kd (Bcl-2 [1]): < 10 nM; Kd (Bcl-XL [2]): 10 to 100 nM

Question: Which results are given for `CN1CCC(F)(CNc2ccc(S(=O)(=O)NC(=O)c3ccc(N4CCN(CC5=C(C67CC(C(F)F)(C6)C7)CC(C)(C)CC5)CC4)cc3Oc3cnc4[nH]ccc4c3)cc2[N+](=O)[O-])CC1` [Example 38, 2-((1H-pyrrolo[2,3-b]pyridin-5-yl)oxy)-4-(4-((2-(3-(difluoromethyl)bicyclo[1.1.1]pentan-1-yl)-4,4-dimethylcyclohex-1-en-1-yl)methyl)piperazin-1-yl)-N-((4-(((4-fluoro-1-methylpiperidin-4-yl)methyl)amino)-3-nitrophenyl)sulfonyl)benzamide]?
Answer: IC50 (RS4;11 cells): < 100 nM; Kd (Bcl-2 [1]): < 10 nM; Kd (Bcl-XL [2]): 10 to 100 nM

Question: Which results are given for `CC(C)C12CC(C3=C(CN4CCN(c5ccc(C(=O)NS(=O)(=O)c6ccc(NCC7CCOCC7)c([N+](=O)[O-])c6)c(Oc6cnc7[nH]ccc7c6)c5)CC4)CCC(C)(C)C3)(C1)C2` [Example 39, 2-((1H-pyrrolo[2,3-b]pyridin-5-yl)oxy)-4-(4-((2-(3-isopropylbicyclo[0.1.1]pentan-1-yl)-4,4-dimethylcyclohex-1-en-1-yl)methyl)piperazin-1-yl)-N-((3-nitro-4-(((tetrahydro-2H-pyran-4-yl)methyl)amino)phenyl)sulfonyl)benzamide]?
Answer: IC50 (RS4;11 cells): < 100 nM; Kd (Bcl-2 [1]): 10 to 100 nM; Kd (Bcl-XL [2]): > 100 nM

Question: How did the IC50 (RS4;11 cells) turn out when `CC1(C)CCC(CN2CCN(c3ccc(C(=O)NS(=O)(=O)c4ccc(NCC5CCOCC5)c([N+](=O)[O-])c4)c(Oc4cnc5[nH]ccc5c4)c3)CC2)=C(C23CC(C(C)(F)F)(C2)C3)C1` [Example 40, 2-(1H-pyrrolo[2,3-b]pyridin-5-yloxy)-4-(4-((2-(3-(1,1-difluoroethyl)bicyclo[1.1.1]pentan-1-yl)-4,4-dimethylcyclohex-1-enyl)methyl)piperazin-1-yl)-N-(3-nitro-4-((tetrahydro-2H-pyran-4-yl)methylamino)phenylsulfonyl)benzamide] was run?
Answer: < 100 nM

Question: What about the Kd (Bcl-2 [1]) of the same compound?
Answer: < 10 nM

Question: What about the Kd (Bcl-XL [2]) of the same compound?
Answer: > 100 nM

Question: How did the IC50 (RS4;11 cells) turn out when `CC1(C)CCC(C23CC(Cl)(C2)C3)=C(CN2CCN(c3ccc(C(=O)NS(=O)(=O)c4ccc(N[C@H](CCN5CCC(O)CC5)CSc5ccccc5)c(S(=O)(=O)C(F)(F)F)c4)cc3)CC2)C1` [Example 46] was run?
Answer: 100 to 1000 nM

Question: What about the IC50 (Bcl-2 [3]) of the same compound?
Answer: ≤ 10 nM

Question: And the IC50 (Bcl-XL [4])?
Answer: ≤ 10 nM

Question: Which results are given for `CC1(C)CCC(C23CC(C)(C2)C3)=C(CN2CCN(c3ccc(C(=O)NS(=O)(=O)c4ccc(N[C@H](CCN5CCOCC5)CSc5ccccc5)c(S(=O)(=O)C(F)(F)F)c4)cc3)CC2)C1` [Example 47, (R)-4-(4-((5,5-Dimethyl-2-(3-methylbicyclo[1.1.1]pentan-1-yl)cyclohex-1-enyl)methyl)piperazin-1-yl)-N-(4-(4-morpholino-1-(phenylthio)butan-2-ylamino)-3-(trifluoromethylsulfonyl)phenylsulfonyl)benzamide]?
Answer: IC50 (RS4;11 cells): > 1000 nM; Kd (Bcl-2 [1]): > 100 nM; Kd (Bcl-XL [2]): 10 to 100 nM

Question: With `CN(CCO)CC[C@H](CSc1ccccc1)Nc1ccc(S(=O)(=O)NC(=O)c2ccc(N3CCN(CC4=C(C56CC(C)(C5)C6)CC(C)(C)CC4)CC3)cc2)cc1S(=O)(=O)C(F)(F)F` [Example 49, (R)-4-(4-((4,4-dimethyl-2-(3-methylbicyclo[1.1.1]pentan-1-yl)cyclohex-1-en-1-yl)methyl)piperazin-1-yl)-N-((4-((4-((2-hydroxyethyl)(methyl)amino)-1-(phenylthio)butan-2-yl)amino)-3-((trifluoromethyl)sulfonyl)phenyl)sulfonyl)benzamide] as the compound, how does the IC50 (RS4;11 cells) read?
Answer: 100 to 1000 nM

Question: What about the IC50 (Bcl-2 [3]) of the same compound?
Answer: ≤ 10 nM

Question: And the IC50 (Bcl-XL [4])?
Answer: ≤ 10 nM

Question: For `CCC12CC(C3=C(CN4CCN(c5ccc(C(=O)NS(=O)(=O)c6ccc(N[C@H](CCN(C)CCO)CSc7ccccc7)c(S(=O)(=O)C(F)(F)F)c6)cc5)CC4)CCC(C)(C)C3)(C1)C2` [Example 50, (R)-4-(4-((2-(3-Ethylbicyclo[1.1.1]pentan-1-yl)-4,4-dimethylcyclohex-1-en-1-yl)methyl)piperazin-1-yl)-N-((4-((4-((2-hydroxyethyl)(methyl)amino)-1-(phenylthio)butan-2-yl)amino)-3-((trifluoromethyl)sulfonyl)phenyl)sulfonyl)benzamide], which IC50 (RS4;11 cells) is on record?
Answer: 100 to 1000 nM

Question: And the IC50 (Bcl-2 [3])?
Answer: ≤ 10 nM

Question: What about the IC50 (Bcl-XL [4]) of the same compound?
Answer: ≤ 10 nM
